Results: a compilation of properties of binary mixtures (doi:10.1016/j.fluid.2006.05.028)
Blank lines part the entries; values can stand above or below the compound they belong to.

Test: xn = mol fraction of the nth substance listed
Conditions: 298.15 K, 101.3 kPa

electrical conductivity (x1 = 1): 0.0026 S/m
Structure (SMILES): O + CCOS(=O)(=O)[O-].CC[n+]1ccn(C)c1

electrical conductivity (x2 = 0.65): 0.292 S/m
Structure (SMILES): [Br][Al]([Br])[Br] + CC[n+]1ccccc1.[Br-]

electrical conductivity (x1 = 0.004): 1.35 S/m
electrical conductivity (x1 = 0.0084): 2.11 S/m
electrical conductivity (x1 = 0.0133): 2.76 S/m
electrical conductivity (x2 = 0.4084): 1.3 S/m
electrical conductivity (x2 = 0.5931): 2.03 S/m
electrical conductivity (x2 = 0.6983): 2.55 S/m
electrical conductivity (x2 = 0.7663): 3.03 S/m
electrical conductivity (x2 = 0.8139): 3.54 S/m
electrical conductivity (x2 = 0.876): 4.14 S/m
electrical conductivity (x2 = 0.8974): 4.31 S/m
electrical conductivity (x2 = 0.9148): 4.41 S/m
electrical conductivity (x2 = 0.9413): 4.43 S/m
electrical conductivity (x2 = 0.9516): 4.33 S/m
electrical conductivity (x2 = 0.9606): 4.16 S/m
Structure (SMILES): CCOS(=O)(=O)[O-].CC[n+]1ccn(C)c1 + O
